From patent US9861623B1, “Combination treatment of RAS-positive diseases with PDE-δ inhibitor and direct autophagy inhibitor” (Macau University of Science and Technology, priority 2016, dated 2018)

Columns and labels:
Assay type in all cases: cell-based
A549 cells [1] = test: Colony formation assay; details: 10 days
Experimental: Detailed procedures of colony formation assay were described previously (Franken, N. A., et al., Nature protocols, 2006, 1(5):2315-2319). A549 cells were seeded in a six-well plate at a density of 500 cells per well. The cells were exposed to various concentrations of deltarasin. After 10-14 days, the colonies were fixed with 4% paraformaldehyde and stained with 0.5% (0.5% w/v) crystal violet solutions, the number of colonies were counted under a dissecting microscope.

A549 cells [2] = test: GFP-LC3 puncta formation in transfected A549 cells; details: 24 h
Experimental: GFP-LC3 expression vector was utilized to monitor and quantify the induction of autophagy following the 3rd autophagy guidelines. A549 cells were seeded at a density of 2×10^5 cells/well in 6-well plates, according to the manufacturers instructions. Lipofectamine™ 2000 was incubated with GFP-LC3 in Opti-MEM reduced serum medium for 20 min at room temperature. The mixture was added drop by drop to the cells and then incubated for 4-6 h. The DNA/Lipofectamine™ 2000 medium was replaced by fresh medium and cultured for another 24 h. […] The percentage of autophagic cells was calculated by counting the number of the cells showing increased punctuate pattern of LC3 fluorescence (≧10 dots/cell) in immunofluorescence positive cells over the total number of cells in the same field. A minimum of 300 cells from randomly selected fields were scored.

KRAS = test: Immunofluorescence of KRAS cellular localization in A549 cells; details: 5 μM, 24 h
Experimental: Cells were plated on 6-well plates and grown overnight, then treated with 5 μM deltarasin or 5 mM 3-MA for 24 h. Cells were fixed with 4% paraformaldehyde for 20 min at 4° C., followed by permeabilized with 0.2% Triton X-100 in PBS for 10 min. Subsequently, the cells were blocked with 2% BSA/PBS for 30 min at room temperature, then incubated with KRAS antibody (1:100) overnight at 4° C., followed by the secondary antibody (1:500) for 1 h at room temperature. The nuclear was stained with 1 μg/ml Hoechst staining for 10 min in the dark. The cells were visualized using fluorescent microscopy.

A549 cells [3] = test: Cell viability assay (MTT)
Experimental: […] At the end of the incubation, 10 μl of MTT (5 mg/mL, Sigma) were added into each well for 4 h at 37° C., then the crystals were dissolved in 100 μl of the resolved solution (10% SDS and 0.1 mM HCL). The absorbance at 570 nm was measured using a microplate reader (Tecan, Morrisville, N.C., USA). The cell viability was calculated relative to untreated controls. At least 3 independent experiments were performed and the data were plotted as curve graph.

[4] = tested on: AMPK-mTOR signaling pathway; test: Western blot of AMPK-mTOR pathway in A549 cells; details: 0-5 μM, 24 h
Experimental: (§1) Cells were washed twice with cold PBS and then lysed in RIPA lysis buffer containing protease and phosphatase inhibitors. Protein concentration of the cell lysate was measured by using the Bio-Rad protein assay kit (Bio-Rad, Philadelphia, Pa., USA). After equalizing the protein concentrations of the samples, 5×laemmli buffer was added and boiled at 100° C. for 5 min. Equal amounts of protein (20-40 μg per lane) were separated with a 10% SDS-PAGE gel, then the separated proteins were transferred to a nitrocellulose (NC) membrane, which was then exposed to 5% non-fat dry milk in TBS contains 0.1% Tween 20 (0.1% TBST) for 1 h at room temperature with constant agitation, followed by overnight incubation at 4° C. with primary anti-bodies. After washing 3 times with TBST, the membranes were incubated with secondary rabbit or mouse fluorescent antibodies, then the signal intensity of the membranes was detected by anLI-COR Odessy scanner (Belfast, Me., USA). All primary antibodies were diluted in 1:1000, while their recommended secondary antibodies were diluted in 1:10000.

intracellular ROS = test: Detection of ROS production by DCF-DA flow cytometry; details: PANC-1, A549 and H358 cells, 24 h
Experimental: Intracellular ROS generation was measured by DCF-DA fluorescence probe using flow cytometry. Briefly, A549, H358 and PANC-1 cells (1×10^5 cells/well) were seeded in a six-well plate, and different concentrations of deltarasin were added into the wells. After treatment with deltarasin for 24 h, the treated cells were detached with trypsin, and washed twice with PBS and incubated with 10 μM DCF-DA for 30 min at 37° C. in the dark, the fluorescence-stained cells were then analyzed using a FACS BD Aria III flow cytometer.

[5] = tested on: c-Raf, Akt and ERK phosphorylation; test: Western blot of KRAS downstream signalling; details: PANC-1, A549 and H358 cells, 24 h, 0-5 μM
Experimental: as §1

PARP, Bcl-2 and Bax = test: Western blot of apoptosis-related proteins in A549 cells; details: 24 h
Experimental: as §1

H358 cells [6] = test: Cell apoptosis assay, Annexin V/PI flow cytometry; details: 24 h, deltarasin 5 μM, 3-MA 5 mM where co-treated
Experimental: (§2) Apoptosis was measured using the Annexin V-FITC apoptosis detection kit (BD Biosciences, San Jose, Calif., USA), according to the manufacturer protocol. Briefly, A549, H358 and PANC-1 cells (1.0×10^5 cells/well) were allowed to attach in a six-well plate for 24 h, cells were treated with deltarasin for 24 h. Subsequently, cells were trypsinized, washed with PBS and stained with 100 μL binding buffer containing 2 μl Annexin-V FITC (2.5 μg/ml) and 5 μl propidium iodide (PI) (50 μg/ml) incubated in the dark at room temperature for 15 min, before further addition of 400 μl of 1×Annexin-binding buffer. The stained cells were analyzed quantitatively using a BD Aria III Flow Cytometer (BD Biosciences, San Jose, Calif., USA). Data were analyzed by Flow Jo software.

A549 cells [7] = test: Cell apoptosis assay, Annexin V/PI flow cytometry; details: 24 h
Experimental: as §2

GTP-RAS = test: RAS activation assay (Raf1 RBD pull-down) in A549 cells; details: 5 μM, 24 h
Experimental: A549 cells were treated with deltarasin for 24 h at 5 μM. Cells were lysed in lysis buffer, adjusted the volume of each sample to 1 ml with 1×Assay Lysis Buffer. Then 40 μl of the Raf1 RBD Agarose bead slurry was swiftly added to each samples. The samples were incubated at 4° C. for 1 h with gentle agitation. The beads were washed 3 times with cold lysis buffer, and bounded protein was resuspended in 40 μl of 2×reducing SDS-PAGE sample buffer and heated at 100° C. for 5 min. The level of […] was detected after SDS-PAGE followed by Western blot.

PANC-1 cells = test: Cell viability assay (MTT); details: Homo sapiens, 72 h
Experimental: (§3) 3000 cells were seeded at 96-well plates and cultured overnight for cell adhesion, and treated with DMSO or various concentrations of deltarasin for 72 h. At the end of the incubation, 10 μl of MTT (5 mg/mL, Sigma) were added into each well for 4 h at 37° C., then the crystals were dissolved in 100 μl of the resolved solution (10% SDS and 0.1 mM HCL). The absorbance at 570 nm was measured using a microplate reader (Tecan, Morrisville, N.C., USA). The cell viability was calculated relative to untreated controls. At least 3 independent experiments were performed and the data were plotted as curve graph.

H358 cells [8] = test: Cell viability assay (MTT); details: Homo sapiens, NCI-H358, 72 h
Experimental: as §3

LC3-II = test: Western blot of LC3-I to LC3-II conversion (autophagy); details: 24 h; for accumulation of LC3-II under deltarasin: A549 cells
Experimental: as §1

In the case of `c1ccc(Cn2c(-c3ccc(OC[C@H](C4CCNCC4)n4c(-c5ccccc5)nc5ccccc54)cc3)nc3ccccc32)cc1` [deltarasin], the colony formation capacity (A549 cells [1]; 0-5 μM) is reported as “significantly inhibits”, the colonies formed (A549 cells [1]; 5 μM) is reported as “no visible colonies” and the GFP-LC3 puncta formation (A549 cells [2]; 5 μM, vs untreated control) is reported as “increased percentage”. For the same compound, the KRAS cellular localization (KRAS) was “reduced the amount of KRAS protein at the plasma membrane and displaced KRAS into the cytoplasm”, the IC50 (A549 cells [3]; Homo sapiens, 72 h, MTT) was 5.29 ± 0.7 µM and the “mTOR and p70S6K phosphorylation” value [4] was “suppressed”. For the same compound, the p-AMPK level [4] was “up-regulation”, the “intracellular ROS levels” value (intracellular ROS; 5 μM) was “significantly elevated” and the “c-Raf, Akt and ERK phosphorylation” value [5] was “inhibited”. The “cleavage of PARP” value (PARP, Bcl-2 and Bax; 5 μM) was “induction of the cleavage of PARP”, the “expression of anti-apoptotic protein Bcl-2” value (PARP, Bcl-2 and Bax) was “reduction” and the “expression of pro-apoptotic protein Bax” value (PARP, Bcl-2 and Bax) was “increase”. The cell apoptosis (H358 cells [6]) was 15.99%, the “induction of apoptosis vs untreated cells” value (A549 cells [7]; 5 μM) was “significantly induced apoptosis” and the cell apoptosis (A549 cells [7]; deltarasin 5 μM, 3-MA 5 mM where co-treated) was 11.25%. The “binding of GTP to c-Raf-1 binding domain (KRAS-GTP level)” value (GTP-RAS) was “significantly inhibited”, the IC50 (PANC-1 cells) was 3.86 ± 0.96 µM and the IC50 (H358 cells [8]) was 4.21 ± 0.72 µM. For the same compound, the “conversion of LC3-I to LC3-II” value (LC3-II; PANC-1, A549 and H358 cells, 0-5 μM, dose-dependent) was “distinctly facilitated”.
For `Cn1cnc(N)c2ncnc1-2` [3-MA, 3-methyladenine], the “number of GFP-LC3 puncta under deltarasin” value (A549 cells [2]; 5 μM deltarasin plus 5 mM 3-MA) was “significantly diminished” and the “accumulation of LC3-II induced by deltarasin” value (LC3-II; PANC-1, A549 and H358 cells, 5 μM deltarasin plus 5 mM 3-MA) was “suppressed”.
In the case of `CC(=O)N[C@@H](CS)C(=O)O` [NAC, N-acetyl cysteine], the deltarasin-induced cell cytotoxicity (A549 cells [3]; 5 μM deltarasin plus 5 μM NAC, 24 h) is reported as “decreases”, the “high level of ROS induced by deltarasin” value (intracellular ROS; 5 μM deltarasin plus 5 μM NAC) is reported as “suppressed” and the “PARP cleavage under deltarasin” value (PARP, Bcl-2 and Bax; 5 μM deltarasin plus 5 μM NAC) is reported as “suppressed”. For the same compound, the deltarasin-induced apoptosis (A549 cells [7]; 5 μM deltarasin plus 5 μM NAC) was “decreases” and the “accumulation of LC3-II under deltarasin” value (LC3-II; 5 μM deltarasin plus 5 μM NAC) was “suppressed”.
In the case of `c1cc(-c2cnn3cc(-c4ccc(OCCN5CCCCC5)cc4)cnc23)ccn1` [compound C], the “accumulation of LC3-II under deltarasin” value (LC3-II; 5 μM deltarasin plus 5 μM Compound C) is reported as “suppressed”.
